This is an account of results in PMC8969151 (2022).

Common to all, as to test: in vitro transcription antitermination dose-response (E. coli RNAP)
Experiment [1] deals with pfl ZTP riboswitch with C3-SC1 leader (PRA1_Cap3_SC1_CbePfl_dRP1) (RNA, riboswitch) AUUCGGUGCUCUUCUCUUCGGCCUUCGGGCCAAAUUAGAUAUUAGUCAUAUGACUGACGGAAGUGGAGUUACCACAUGAAGUAUGACUAGGCAUAUUAUCUUAUAUGCCACAAAAAGCCGACCGUCUGGGCAAAAAAAGCCUGGAUUGCGUCGGCUUUUUUAUAUGGAAAAGAUCGUCGGACUGUAGAACUCUGAACGUGUAGAUCUCGGUGGUCGCCGUAUCAUU
As to conditions: 50 mM KCl, 10 mM MgCl2; 20 mM Tris-HCl pH 8.0, 37 °C, 500 μM NTPs; up to 1 mM ZMP; readthrough fold-change 7.1.

The test system of experiment [2] is pfl ZTP riboswitch (native, leader-less; PRA1_CbePfl_dRP1) (RNA, riboswitch) AUAUUAGAUAUUAGUCAUAUGACUGACGGAAGUGGAGUUACCACAUGAAGUAUGACUAGGCAUAUUAUCUUAUAUGCCACAAAAAGCCGACCGUCUGGGCAAAAAAAGCCUGGAUUGCGUCGGCUUUUUUAUAUGGAAAAGAUCGUCGGACUGUAGAACUCUGAACGUGUAGAUCUCGGUGGUCGCCGUAUCAUU
To be noted: 50 mM KCl, 10 mM MgCl2; 20 mM Tris-HCl pH 8.0, 37 °C, 500 μM NTPs; up to 1 mM ZMP; readthrough fold-change 3.6.

Experiment [3] concerns Cba ppGpp riboswitch with C3-SC1 leader (PRA1_Cap3_SC1_Cba2-2_dRP1) (RNA, riboswitch) AUUCGGUGCUCUUCUCUUCGGCCUUCGGGCCAAAAUAAGAGAGUGUAUCUAGGGUUCCGGUCAAUAGAUGUCUGGUCCGAGCGAUACAGGAUUUCAAUCUACACUUUUAGGAAAAAAGCCUAAAGGACGAGUCUCUGCAAAGAGAUUUGUUCUUGGGCUUUAUUUUUUUAUCUUUAUUUAAGAUCGUCGGACUGUAGAACUCUGAACGUGUAGAUCUCGGUGGUCGCCGUAUCAUU
To be noted: 50 mM KCl, 10 mM MgCl2; 20 mM Tris-HCl pH 8.0, 37 °C, 500 μM NTPs, NusA; readthrough fold-change 6.0.

Experiment [4] concerns Cba ppGpp riboswitch (native, leader-less; PRA1_Cba2-2_dRP1) (RNA, riboswitch) AUAAUAAGAGAGUGUAUCUAGGGUUCCGGUCAAUAGAUGUCUGGUCCGAGCGAUACAGGAUUUCAAUCUACACUUUUAGGAAAAAAGCCUAAAGGACGAGUCUCUGCAAAGAGAUUUGUUCUUGGGCUUUAUUUUUUUAUCUUUAUUUAAGAUCGUCGGACUGUAGAACUCUGAACGUGUAGAUCUCGGUGGUCGCCGUAUCAUU
To be noted: 50 mM KCl, 10 mM MgCl2; 20 mM Tris-HCl pH 8.0, 37 °C, 500 μM NTPs, NusA only stated for leader assay; readthrough fold-change 1.9.

On to `NC(=O)c1ncn([C@@H]2O[C@H](COP(=O)(O)O)[C@@H](O)[C@H]2O)c1N`, for which the binding entry in experiment [1] and in experiment [2] was “yes” each time.

As for `Nc1nc2c(ncn2[C@@H]2O[C@H](COP(=O)(O)OP(=O)(O)O)[C@@H](OP(=O)(O)OP(=O)(O)O)[C@H]2O)c(=O)[nH]1`, the binding entry in experiment [3] and in experiment [4] was “yes” each time.
